# Reference: publication PMC10637926 (Heliyon, 2023)
# Biological target: AChE enzyme from Electrophorus electricus (electric eel) (Electrophorus electricus, UniProt O42275)
# Assay: In vitro AChE inhibition, Ellman spectrophotometric procedure
# Type: biochemical
# Details: for IC50: IC50 against AChE, dose dependent assay, 412 nm; for inhibition at 100 µM: read-out: AChE inhibition, mean of R1-R3
# Sequence of AChE enzyme from Electrophorus electricus (electric eel) (O42275 24-633): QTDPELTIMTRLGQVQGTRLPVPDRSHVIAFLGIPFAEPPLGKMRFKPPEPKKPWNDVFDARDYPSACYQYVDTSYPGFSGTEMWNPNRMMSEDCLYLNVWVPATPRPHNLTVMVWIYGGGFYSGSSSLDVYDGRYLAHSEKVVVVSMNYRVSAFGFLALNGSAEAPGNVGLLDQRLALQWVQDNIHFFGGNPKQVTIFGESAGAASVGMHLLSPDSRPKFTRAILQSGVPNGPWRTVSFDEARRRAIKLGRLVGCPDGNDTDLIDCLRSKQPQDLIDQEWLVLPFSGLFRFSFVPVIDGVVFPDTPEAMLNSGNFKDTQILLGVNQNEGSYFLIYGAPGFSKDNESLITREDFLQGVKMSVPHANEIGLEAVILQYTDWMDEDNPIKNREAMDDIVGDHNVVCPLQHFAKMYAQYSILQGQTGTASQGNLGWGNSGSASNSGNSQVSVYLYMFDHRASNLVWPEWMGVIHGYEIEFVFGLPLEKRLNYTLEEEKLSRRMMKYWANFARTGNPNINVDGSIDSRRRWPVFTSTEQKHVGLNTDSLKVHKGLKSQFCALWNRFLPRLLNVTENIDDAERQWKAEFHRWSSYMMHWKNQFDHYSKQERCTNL
SMILES,IC50 [µM],inhibition at 100 µM [%]
O=c1cc(-c2ccc(O)cc2)oc2cc(O)cc(O)c12 [Apigenin],13.8,80
O=c1c(O)c(-c2ccc(O)c(O)c2)oc2cc(O)cc(O)c12 [Quercetin],,85.7
COc1c(O)cc(O)c2c(=O)cc(-c3ccccc3)oc12 [Wogonin],15.5,80.3
